From PubChem BioAssay AID1963829 (Molecular Pharmacology Branch, DTP, NCI, 2024)

System: 935938-334-R-J1-PDC complex spheroid viability
Experiment: Anticancer human tumor 935938-334-R-J1-PDC patient-derived small intestine adenocarcinoma cell line growth inhibition [POLQ]
Conditions: for IC50: curve of first compound; for viability, T/C: stronger effect = lower value
Experimental: Multicellular complex tumor spheroid response to Polymerase (POL) inhibitors (novobiocin, ART-558, RP6685) in combination with a variety of drugs and investigational agents in selected tumor cell lines
The POL inhibitors (novobiocin, ART-558, and RP6685) were evaluated both individually and in combination with standard of care and investigational anticancer small molecules within a complex spheroid model of solid tumors. . Complex spheroids include a stromal component modeled by human endothelial cells (HUVEC) and fibroblasts modeled by human mesenchymal stem cells (MSCs). The concentration ranges selected for each drug and investigational agent were based upon clinically achievable concentrations if the clinical Cmax of the agent was known.
Compounds. The drugs and investigational agents: novobiocin (NSC847541), ART-558 (NSC835418), RP-6685 (NSC848927), peposertib (NSC802822), ceralasertib (NSC780249), elimusertib (NSC800525), camonsertib (NSC841442), AZD-1390 (NSC803789), olaparib (NSC753686), talazoparib (NSC767125), rucaparib (NSC756644), sotorasib (NSC818433), MRTX-1133 (NSC836407), SN-38 (NSC673596), topotecan (NSC609699), epotoside (NSC141540), doxorubicin (NSC123127), gemcitabine (NSC613327), 5-fluorouracil (NSC19893), paclitaxel (NSC125973), vemurafenib (NSC761431), MSA-2 (NSC828583), SN-011 (NSC837082), adavosertib (NSC754352), prexasertib (NSC758257), carboplatin (NSC241240) and oxaliplatin (NSC266046), were obtained from the National Cancer Institute (NCI) Developmental Therapeutics Program Chemical Repository (21). The FDA-approved anticancer drug set is available from the Developmental Therapeutics Program at https://dtp.cancer.gov/organization/dscb/obtaining/. […] The stock solutions were prepared in dimethyl sulfoxide (DMSO, Sigma-Aldrich, St. Louis, MO, cat. D2650), except for the platinum compounds which were prepared in saline (Quality Biological, Gaithersburg, MD, cat. 114-055-101), at 800-fold the tested concentration and stored at -70 degrees C prior to their use. All drugs and investigational agents were tested over a range starting from a high concentration at or near the clinical Cmax and decreasing in half-log increments. If the clinical Cmax for an agent had not been determined, the highest concentration tested was 10 microM, except for SN-38, which was tested at a high concentration of 1 microM.
Cell Culture. All cells were maintained in an incubator at 37 degrees C and 5% CO2 with 95% humidity. The PDC lines were cultured according to standard operating procedures established by the NCI PDMR (https://pdmr.cancer.gov). Table 3 of the manuscript, lists the cell lines along with the number of the three cell types plated to form the mct-spheroids and media for tumor cell growth. After thawing, all PDC lines, except 997537-175-T-J1-PDC and 415267-285-R-J2-PDC, were cultured in Matrigel-coated flasks prepared with a working solution of 1X Ham's F-12 nutrient mix, without supplementation (Thermo Fisher Scientific, cat. 11765054), 100 U/mL penicillin-streptomycin (Thermo Fisher Scientific, cat. 15140122), and 2.5% Matrigel (Corning Inc., Corning, NY, cat. 354248) for the first three passages. The two PDC lines 997537-175-T-J1-PDC and 415267-285-R-J2-PDC were cultured on uncoated flasks. The 857933-349-R-J2-PDC line was cultured in 6C/Colon 1B media containing advanced DMEM/F-12 (Thermo Fisher Scientific, cat. 12634028), 10 mM HEPES (Thermo Fisher Scientific, cat. 15630080), 1X GlutaMAX supplement (Thermo Fisher Scientific, cat. 35050061), 0.1 mg/mL primocin (InvivoGen, San Diego, CA, cat. ant-pm-2), 10% defined fetal bovine serum, heat inactivated (HyClone Laboratories Inc., Logan, UT, cat. SH30070.03HI), 50% L-WRN conditioned media (ATCC, cat. CRL-3276), 1.25 mM N-Acetyl-L-cysteine (Sigma-Aldrich, cat. A9165), 10 mM nicotinamide (Sigma-Aldrich, cat. N0636), 1X B-27 supplement (Thermo Fisher Scientific, cat. 17504044), 1X N-2 supplement (Thermo Fisher Scientific, cat. […]

[1] = second compound 0.0316 µM, first compound 0.0316 µM
[2] = second compound 0.0316 µM, first compound 0.1 µM
[3] = second compound 0.0316 µM, first compound 0.316 µM
[4] = second compound 0.0316 µM, first compound 1 µM
[5] = second compound 0.0316 µM, first compound 3.16 µM
[6] = second compound 0.0316 µM, first compound 10 µM
[7] = second compound 0.1 µM, first compound 0.0316 µM
[8] = second compound 0.1 µM, first compound 0.1 µM
[9] = second compound 0.1 µM, first compound 0.316 µM
[10] = second compound 0.1 µM, first compound 1 µM
[11] = second compound 0.1 µM, first compound 3.16 µM
[12] = second compound 0.1 µM, first compound 10 µM
[13] = second compound 0.316 µM, first compound 0.0316 µM
[14] = second compound 0.316 µM, first compound 0.1 µM
[15] = second compound 0.316 µM, first compound 0.316 µM
[16] = second compound 0.316 µM, first compound 1 µM
[17] = second compound 0.316 µM, first compound 3.16 µM
[18] = second compound 0.316 µM, first compound 10 µM
[19] = second compound 1 µM, first compound 0.0316 µM
[20] = second compound 1 µM, first compound 0.1 µM
[21] = second compound 1 µM, first compound 0.316 µM
[22] = second compound 1 µM, first compound 1 µM
[23] = second compound 1 µM, first compound 3.16 µM
[24] = second compound 1 µM, first compound 10 µM
[25] = second compound 3.16 µM, first compound 0.0316 µM
[26] = second compound 3.16 µM, first compound 0.1 µM
[27] = second compound 3.16 µM, first compound 0.316 µM
[28] = second compound 3.16 µM, first compound 1 µM
[29] = second compound 3.16 µM, first compound 3.16 µM
[30] = second compound 3.16 µM, first compound 10 µM
[31] = second compound 10 µM, first compound 0.0316 µM
[32] = second compound 10 µM, first compound 0.1 µM
[33] = second compound 10 µM, first compound 0.316 µM
[34] = second compound 10 µM, first compound 1 µM
[35] = second compound 10 µM, first compound 3.16 µM
[36] = second compound 10 µM, first compound 10 µM
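Also: spheroids exposed to drugs for seven days before viability read.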
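For viability, T/C in this document: 100% = DMSO vehicle control wells.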

## CNCc1ccc(-c2[nH]c3cc(F)cc4c3c2CCNC4=O)cc1 + Cc1cccc(N(C)C(=O)C2C(O)CCN2c2nc(C)cc(C(F)(F)F)c2C#N)c1
Second compound 0.0316 µM
  IC50: > 10 µM
Second compound 0.1 µM
  IC50: > 10 µM
Second compound 0.316 µM
  IC50: > 10 µM
Second compound 1 µM
  IC50: > 10 µM
Second compound 3.16 µM
  IC50: > 10 µM
Second compound 10 µM
  IC50: > 10 µM
[1]
  viability, T/C: 90.2%
[2]
  viability, T/C: 97.7%
[3]
  viability, T/C: 101%
[4]
  viability, T/C: 115%
[5]
  viability, T/C: 108%
[6]
  viability, T/C: 81.8%
[7]
  viability, T/C: 107%
[8]
  viability, T/C: 64.9%
[9]
  viability, T/C: 78.2%
[10]
  viability, T/C: 94.9%
[11]
  viability, T/C: 90.6%
[12]
  viability, T/C: 76.8%
[13]
  viability, T/C: 85.5%
[14]
  viability, T/C: 94.5%
[15]
  viability, T/C: 97.2%
[16]
  viability, T/C: 97.2%
[17]
  viability, T/C: 125%
[18]
  viability, T/C: 99.9%
[19]
  viability, T/C: 106%
[20]
  viability, T/C: 78.6%
[21]
  viability, T/C: 88.5%
[22]
  viability, T/C: 100%
[23]
  viability, T/C: 93.2%
[24]
  viability, T/C: 112%
[25]
  viability, T/C: 88.9%
[26]
  viability, T/C: 118%
[27]
  viability, T/C: 88.1%
[28]
  viability, T/C: 102%
[29]
  viability, T/C: 133%
[30]
  viability, T/C: 99.5%
[31]
  viability, T/C: 122%
[32]
  viability, T/C: 80.7%
[33]
  viability, T/C: 96.2%
[34]
  viability, T/C: 83.2%
[35]
  viability, T/C: 121%
[36]
  viability, T/C: 102%

## O=C(Nc1ccc(O)c(NS(=O)(=O)c2ccc(F)cc2)c1)c1ccc(-c2ccccc2)cc1 + COC1C(OC(N)=O)C(O)C(Oc2ccc3c(O)c(NC(=O)c4ccc(O)c(CC=C(C)C)c4)c(=O)oc3c2C)OC1(C)C
Second compound 0.0316 µM
  IC50: > 10 µM
Second compound 0.1 µM
  IC50: > 10 µM
Second compound 0.316 µM
  IC50: > 10 µM
Second compound 1 µM
  IC50: > 10 µM
Second compound 3.16 µM
  IC50: > 10 µM
Second compound 10 µM
  IC50: > 10 µM
[1]
  viability, T/C: 77.9%
[2]
  viability, T/C: 134%
[3]
  viability, T/C: 107%
[4]
  viability, T/C: 102%
[5]
  viability, T/C: 89.1%
[6]
  viability, T/C: 66.7%
[7]
  viability, T/C: 115%
[8]
  viability, T/C: 97.3%
[9]
  viability, T/C: 86.5%
[10]
  viability, T/C: 97%
[11]
  viability, T/C: 90.8%
[12]
  viability, T/C: 72.4%
[13]
  viability, T/C: 95.3%
[14]
  viability, T/C: 97.9%
[15]
  viability, T/C: 102%
[16]
  viability, T/C: 75.9%
[17]
  viability, T/C: 93.3%
[18]
  viability, T/C: 73.6%
[19]
  viability, T/C: 106%
[20]
  viability, T/C: 109%
[21]
  viability, T/C: 96.2%
[22]
  viability, T/C: 93%
[23]
  viability, T/C: 116%
[24]
  viability, T/C: 77%
[25]
  viability, T/C: 105%
[26]
  viability, T/C: 93.3%
[27]
  viability, T/C: 85.2%
[28]
  viability, T/C: 109%
[29]
  viability, T/C: 87.6%
[30]
  viability, T/C: 75.2%
[31]
  viability, T/C: 145%
[32]
  viability, T/C: 99.7%
[33]
  viability, T/C: 128%
[34]
  viability, T/C: 84.4%
[35]
  viability, T/C: 97.2%
[36]
  viability, T/C: 67.6%
